Test results from patent publication US6432968B1 (Aventis Pharma Deutschland GmbH, priority 1994, dated 2002).

Tested on: Human peripheral blood mononuclear cells (PBMC)
Assay: Mixed human lymphocyte reaction (MLR) assay
Type: cell-based
Settings: for inhibition at 100 µM: read-out: % inhibition of proliferation (100 μM), 100 μM, referred to uninhibited controls (0%); for inhibition at 0.0005 µM: immunosuppressant alone, 0.5 nM, read-out: inhibition of lymphocyte proliferation
Method: coculture of lymphocytes of different […] (MLR=mixed lymphocyte reaction): lymphocytes containing different antigens of the HLA-DR type (=allogens) activate each other non-specifically.
100 μl of those PBMC are mixed with 100 μl of irradiated PMBC (1×10^6 cells/ml) in a well of a microtiter plate. The test substances, alone or in combination, are likewise added to the PBMC. The plates are incubated for 5 days at 37° C. in a moist atmosphere which contains 5% CO2. Then 1 μCi of ^3H-thymidine is added to the cells and they are incubated under the abovementioned conditions for a further 8 hours. The cells are then collected on glass fiber filters and the incorporated radioactivity is determined using a beta counter.
Inhibition is given in percent and referred to uninhibited controls (which correspond to 0%).
Inhibition is given in percent and referred to uninhibited controls (which correspond to 0%)

SMILES | inhibition at 100 µM [%] | inhibition at 0.0005 µM [%]
CCCn1cnc2c1c(=O)n(CCCCC(C)O)c(=O)n2C (centres unmarked) [Compound 3, 1-(5-hydroxyhexyl)-3-methyl-7-propyl-xanthine] | 83 | 
CCCCn1cnc2c1c(=O)n(CCCCC(C)(C)O)c(=O)n2C [Compound 8, 1-(5-hydroxy-5-methylhexyl)-3-methyl-7-butylxanthine] | 91 | 
CCOCn1cnc2c1c(=O)n(CCCCC(C)(C)O)c(=O)n2C [Compound 9, 7-ethoxymethyl-1-(5-hydroxy-5-methylhexyl)-3-methylxanthine] | 61 | 
CCCCn1cnc2c1c(=O)n(CCCCCC(C)(C)O)c(=O)n2CC [Compound 11, 7-butyl-3-ethyl-1-(6-hydroxy-6-methylheptyl)-xanthine] | 94 | 
Cn1c(=O)n(CCCCC(C)(C)O)c(=O)c2c1ncn2CC1CC1 [Compound 12, 7-cyclopropylmethyl-1-(5-hydroxy-5-methylhexyl)-3-methylxanthine] | 85 | 
CCCCCCn1c(=O)c2c(ncn2C)n(C)c1=O [Compound 14, 1-hexyl-3,7-dimethylxanthine] | 85 | 
C=CC[C@@H]1/C=C(\C)C[C@H](C)C[C@H](OC)[C@H]2O[C@@](O)(C(=O)C(=O)N3CCCC[C@H]3C(=O)O[C@H](/C(C)=C/[C@@H]3CC[C@@H](O)[C@H](OC)C3)[C@H](C)[C@@H](O)CC1=O)[C@H](C)C[C@@H]2OC [FK 506, Tacrolimus, reference compound] |  | 30
CO[C@H]1C[C@@H]2CC[C@@H](C)[C@@](O)(O2)C(=O)C(=O)N2CCCC[C@H]2C(=O)O[C@H]([C@H](C)C[C@@H]2CC[C@@H](O)[C@H](OC)C2)CC(=O)[C@H](C)/C=C(\C)[C@@H](O)[C@@H](OC)C(=O)[C@H](C)C[C@H](C)/C=C/C=C/C=C/1C [RPM, rapamycin, reference compound] |  | 35
